In brackets after ≈: the same amount, converted by molar mass.
Legend:
in vitro [1] = details: human
[2] = test system: Mycobacterium tuberculosis strain EH4.0 expressing green-fluorescent protein (GFP); test: microbe, parasite or virus in culture; type: cell-based; details: 168 h, read-out: pIC50 (converted)
[3] = Mitochondrial toxicity (Glu/Gal) assay; type: cell-based
Description: (§1) The compounds of the invention/examples may have advantages associated with in vitro potency, kill kinetics (i.e. bactericidal effect) in vitro, PK properties, food effect, safety/toxicity (including liver toxicity, coagulation, […]), metabolic stability, Ames II negativity, MNT negativity, aqueous based solubility (and ability to formulate) and/or cardiovascular effect e.g. on animals (e.g. anesthetized guinea pig). The data below that was generated/calculated may be obtained using standard methods/assays, for instance that are available in the literature or which may be performed by a supplier (e.g. Microsomal Stability Assay—Cyprotex, Mitochondrial toxicity (Glu/Gal) assay —Cyprotex, as well as literature CYP cocktail inhibition assays). In some instances, GSH was measured (reactive metabolites, glucuronidation) to observe if a dihydrodiol is observed by LCMS (fragmentation ions), which would correspond to a dihydroxylation on the core heterocycle.

in vivo = details: rat, po, 5 mg/kg
Method: Oral Bioavailability of Compound 161 in Rat
Compound 161 was administer PO in rat (5 mg/kg, PEG4000 (sol.), 0.5 w/v Methocel (susp.) and the following results were obtained for the solution and suspension.

in vitro [4] = details: mouse
in vitro [5] = details: rat, hepatocytes
Cyp 3A4 = Cyp 3A4 induction; details: at 1 μM
in vitro [6] = details: dog, hepatocytes
AMES II = type: cell-based
Description: as §1

in vitro [7] = details: mouse, hepatocytes
Kinase panel = test: Kinase panel; type: biochemical
physchem = details: thermodynamic from solid
[8] = in vivo
[9] = test system: Cyp-450 (cocktail, isoforms not named); test: Cocktail Cyp-450 inhibition; type: in vitro ADME
Description: as §1

Na Ch = test: CVS panel, Na channel
hERGdof = hERGdof (Homo sapiens, UniProt Q12809); test: CVS panel, hERGdof; type: binding; details: read-out: CVS hERGdof, IC50
Ca Ch = test: CVS panel, Ca channel
Description: as §1

in vitro [10] = details: human, hepatocytes
M. tuberculosis H37Rv = M. tuberculosis H37Rv inside macrophages; J. Medicinal Chemistry, 2014, 57 (12), pp 5293-5305; cited from earlier work

hERGdof, sequence (Q12809 whole entry): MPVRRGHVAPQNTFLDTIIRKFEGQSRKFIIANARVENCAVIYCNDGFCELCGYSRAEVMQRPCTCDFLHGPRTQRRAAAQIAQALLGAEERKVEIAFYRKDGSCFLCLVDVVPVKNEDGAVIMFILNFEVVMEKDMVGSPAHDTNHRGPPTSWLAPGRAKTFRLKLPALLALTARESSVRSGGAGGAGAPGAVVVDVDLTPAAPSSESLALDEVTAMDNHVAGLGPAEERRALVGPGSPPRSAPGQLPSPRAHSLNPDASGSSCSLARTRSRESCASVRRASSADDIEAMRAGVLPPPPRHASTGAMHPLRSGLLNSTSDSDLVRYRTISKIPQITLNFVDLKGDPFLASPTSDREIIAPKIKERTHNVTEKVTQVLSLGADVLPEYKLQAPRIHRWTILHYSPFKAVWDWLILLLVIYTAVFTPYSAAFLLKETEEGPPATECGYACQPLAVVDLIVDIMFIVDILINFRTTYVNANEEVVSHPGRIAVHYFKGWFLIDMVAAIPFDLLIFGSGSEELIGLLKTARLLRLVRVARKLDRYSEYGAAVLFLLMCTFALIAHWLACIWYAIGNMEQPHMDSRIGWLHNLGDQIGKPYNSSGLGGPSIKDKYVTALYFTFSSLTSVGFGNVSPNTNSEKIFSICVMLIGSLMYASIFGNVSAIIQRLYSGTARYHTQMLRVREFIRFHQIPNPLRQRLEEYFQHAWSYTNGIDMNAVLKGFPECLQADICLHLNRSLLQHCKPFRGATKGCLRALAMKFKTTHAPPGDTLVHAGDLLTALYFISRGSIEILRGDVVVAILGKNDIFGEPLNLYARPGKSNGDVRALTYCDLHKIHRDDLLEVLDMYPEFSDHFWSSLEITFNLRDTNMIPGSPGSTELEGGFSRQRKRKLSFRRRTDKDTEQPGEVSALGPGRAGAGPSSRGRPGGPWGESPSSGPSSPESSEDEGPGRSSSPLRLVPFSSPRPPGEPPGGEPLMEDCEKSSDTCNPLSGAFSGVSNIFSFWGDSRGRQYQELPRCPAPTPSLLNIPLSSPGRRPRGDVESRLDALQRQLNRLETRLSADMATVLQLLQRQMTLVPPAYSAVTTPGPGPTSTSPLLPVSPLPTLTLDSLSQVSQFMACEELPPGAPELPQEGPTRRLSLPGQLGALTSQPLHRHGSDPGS

Structure (SMILES): CCc1nc2ncc(C)cn2c1C(=O)NCc1ccc(N2CCN(S(=O)(=O)C(F)(F)F)C=N2)c(F)c1 [Compound 161]
- fraction unbound (in vitro [1]): 0.015
- IC50 [2]: 0.000776 µM
- Glu/Gal assay ratio (mitotoxicity) [3]: < 3
- AUC0-inf (in vivo): 5610 ± 2747 ng·h/mL
- AUC0-inf (in vivo; AUC0-inf): 10900 ± 1720 ng·h/mL
- Cmax (in vivo; Cmax): 1230 ± 406 ng/mL
- Tmax (in vivo; Tmax): 4 h
- half-life (in vivo; t1/2): 3.55 ± 0.45 h
- fraction unbound (in vitro [4]): 0.0245
- hepatocyte CLint (in vitro [5]): 19 µL/min/1e6 cells
- Cyp 3A4 induction (% control) (Cyp 3A4): 3.0 % control
- hepatocyte CLint (in vitro [6]): 4.7 µL/min/1e6 cells
- AMES II (AMES II): negative
- hepatocyte CLint (in vitro [7]): 12 µL/min/1e6 cells
- Kinase panel (Kinase panel): negative
- solubility thermodynamic (physchem; fassif): 5 µg/mL (≈ 9.48 µM)
- solubility thermodynamic (physchem; fessif): 16 µg/mL (≈ 30.3 µM)
- solubility thermodynamic (physchem; pH 2, simulated gastric fluid): 33 µg/mL (≈ 62.6 µM)
- solubility thermodynamic (physchem; pH 7, aqueous buffer): < 0.02 µg/mL
- bioavailability (as shown in rodents) [8]: good bioavailaibility
- IC50 [9]: > 20 µM
- IC50 (Na Ch): > 10 µM
- IC50 (hERGdof): 15.8 µM
- IC50 (Ca Ch): > 10 µM
- hepatocyte CLint (in vitro [10]): 6.7 µL/min/1e6 cells

Structure (SMILES): CCc1nc2ccc(Cl)cn2c1C(=O)NCc1ccc(N2CCC(c3ccc(OC(F)(F)F)cc3)CC2)cc1 [Compound Q203]
- MIC50 (M. tuberculosis H37Rv): 0.28 nM (≈ 0.156 ng/mL)
